# Experimental data as given in ChEMBL document CHEMBL5532655, “Discovery of (R)-4-(8-methoxy-2-methyl-1-(1-phenylethy)-1H-imidazo[4,5-c]quinnolin-7-yl)-3,5-dimethylisoxazole as a potent and selective BET inhibitor for treatment of acute myeloid leukemia (AML) guided by FEP calculation” (Eur J Med Chem, 2024).
# Legend:
# [1] = molecular target: T1, Peregrin (Homo sapiens) (UniProt P55201); conditions: time 30.0 min
# T1 sequence (whole entry): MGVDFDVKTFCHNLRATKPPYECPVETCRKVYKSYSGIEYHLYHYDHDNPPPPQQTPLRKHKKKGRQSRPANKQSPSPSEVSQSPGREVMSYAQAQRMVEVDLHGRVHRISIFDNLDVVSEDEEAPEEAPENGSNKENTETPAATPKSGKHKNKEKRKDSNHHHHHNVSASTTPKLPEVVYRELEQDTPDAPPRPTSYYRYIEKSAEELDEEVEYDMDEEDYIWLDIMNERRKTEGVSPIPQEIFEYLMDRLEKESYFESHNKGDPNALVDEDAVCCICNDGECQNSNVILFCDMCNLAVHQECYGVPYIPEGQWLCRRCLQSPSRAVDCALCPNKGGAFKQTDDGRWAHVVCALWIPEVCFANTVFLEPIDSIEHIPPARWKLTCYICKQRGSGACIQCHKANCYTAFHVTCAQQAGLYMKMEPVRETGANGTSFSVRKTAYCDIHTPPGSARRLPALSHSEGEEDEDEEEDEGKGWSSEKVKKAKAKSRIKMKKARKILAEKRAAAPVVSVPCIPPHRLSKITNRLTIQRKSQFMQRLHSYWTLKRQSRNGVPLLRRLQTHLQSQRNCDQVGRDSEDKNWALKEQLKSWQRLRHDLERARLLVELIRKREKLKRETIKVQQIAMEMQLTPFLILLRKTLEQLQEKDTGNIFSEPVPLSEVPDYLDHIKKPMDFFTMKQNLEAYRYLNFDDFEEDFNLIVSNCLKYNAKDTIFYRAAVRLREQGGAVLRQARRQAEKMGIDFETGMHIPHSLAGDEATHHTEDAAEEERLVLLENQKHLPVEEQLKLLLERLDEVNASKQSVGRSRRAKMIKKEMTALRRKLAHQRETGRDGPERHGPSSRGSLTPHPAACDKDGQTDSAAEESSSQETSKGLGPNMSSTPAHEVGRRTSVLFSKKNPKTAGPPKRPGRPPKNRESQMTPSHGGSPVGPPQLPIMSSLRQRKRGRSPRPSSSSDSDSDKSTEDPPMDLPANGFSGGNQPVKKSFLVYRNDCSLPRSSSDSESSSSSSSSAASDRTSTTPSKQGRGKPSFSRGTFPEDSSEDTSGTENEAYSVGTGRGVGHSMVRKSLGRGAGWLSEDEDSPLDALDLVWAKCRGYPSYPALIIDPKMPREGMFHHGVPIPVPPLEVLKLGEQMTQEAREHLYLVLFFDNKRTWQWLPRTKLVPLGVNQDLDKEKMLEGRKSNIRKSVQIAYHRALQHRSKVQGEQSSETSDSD
# [2] = molecular target: T1, Peregrin (Homo sapiens); assay: Binding affinity to BRPF1 (unknown origin) using biotinylated histone peptide H4 as substrate at 1 uM incubated for 2 hrs by AlphaScreen assay relative to control
# [3] = molecular target: T2, Transcription intermediary factor 1-alpha (Homo sapiens) (UniProt O15164); conditions: time 30.0 min
# T2 sequence (whole entry): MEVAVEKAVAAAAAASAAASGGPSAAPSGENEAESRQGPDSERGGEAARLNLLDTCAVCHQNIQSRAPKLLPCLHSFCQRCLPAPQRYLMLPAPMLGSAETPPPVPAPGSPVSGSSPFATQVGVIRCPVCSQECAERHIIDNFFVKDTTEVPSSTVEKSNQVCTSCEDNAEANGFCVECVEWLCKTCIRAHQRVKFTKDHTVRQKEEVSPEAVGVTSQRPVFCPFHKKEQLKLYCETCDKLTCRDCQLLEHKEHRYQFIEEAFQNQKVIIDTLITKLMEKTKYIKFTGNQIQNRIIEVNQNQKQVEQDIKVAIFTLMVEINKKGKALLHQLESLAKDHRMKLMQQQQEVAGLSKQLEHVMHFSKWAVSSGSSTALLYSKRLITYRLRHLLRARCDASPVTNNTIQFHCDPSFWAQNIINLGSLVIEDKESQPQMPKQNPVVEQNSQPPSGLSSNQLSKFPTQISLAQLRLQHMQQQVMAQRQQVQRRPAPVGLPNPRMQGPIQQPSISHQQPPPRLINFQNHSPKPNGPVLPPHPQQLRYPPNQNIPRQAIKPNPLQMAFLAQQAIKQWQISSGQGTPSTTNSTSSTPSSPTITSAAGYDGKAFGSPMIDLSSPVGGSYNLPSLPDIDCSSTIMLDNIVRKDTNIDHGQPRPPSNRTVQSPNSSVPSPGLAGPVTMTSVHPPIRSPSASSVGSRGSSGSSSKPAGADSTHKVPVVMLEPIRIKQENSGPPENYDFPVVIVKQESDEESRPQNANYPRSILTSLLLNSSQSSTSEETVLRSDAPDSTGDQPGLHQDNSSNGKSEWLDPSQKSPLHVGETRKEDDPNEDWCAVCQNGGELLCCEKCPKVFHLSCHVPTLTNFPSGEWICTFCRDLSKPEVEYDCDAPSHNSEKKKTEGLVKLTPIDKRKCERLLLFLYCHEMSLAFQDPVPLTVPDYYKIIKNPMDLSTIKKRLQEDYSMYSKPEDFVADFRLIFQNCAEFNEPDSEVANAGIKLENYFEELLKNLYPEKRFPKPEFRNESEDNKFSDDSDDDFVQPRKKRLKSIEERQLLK
# [4] = molecular target: SWI/SNF-related matrix-associated actin-dependent regulator of chromatin subfamily A member 2 (Homo sapiens) (UniProt P51531); assay: Binding affinity to SMARCA2 (unknown origin) using biotinylated histone peptide H4 as substrate at 1 uM incubated for 2 hrs by AlphaScreen assay relative to control
# Sequence of SWI/SNF-related matrix-associated actin-dependent regulator of chromatin subfamily A member 2 (Homo sapiens) (P51531 whole entry): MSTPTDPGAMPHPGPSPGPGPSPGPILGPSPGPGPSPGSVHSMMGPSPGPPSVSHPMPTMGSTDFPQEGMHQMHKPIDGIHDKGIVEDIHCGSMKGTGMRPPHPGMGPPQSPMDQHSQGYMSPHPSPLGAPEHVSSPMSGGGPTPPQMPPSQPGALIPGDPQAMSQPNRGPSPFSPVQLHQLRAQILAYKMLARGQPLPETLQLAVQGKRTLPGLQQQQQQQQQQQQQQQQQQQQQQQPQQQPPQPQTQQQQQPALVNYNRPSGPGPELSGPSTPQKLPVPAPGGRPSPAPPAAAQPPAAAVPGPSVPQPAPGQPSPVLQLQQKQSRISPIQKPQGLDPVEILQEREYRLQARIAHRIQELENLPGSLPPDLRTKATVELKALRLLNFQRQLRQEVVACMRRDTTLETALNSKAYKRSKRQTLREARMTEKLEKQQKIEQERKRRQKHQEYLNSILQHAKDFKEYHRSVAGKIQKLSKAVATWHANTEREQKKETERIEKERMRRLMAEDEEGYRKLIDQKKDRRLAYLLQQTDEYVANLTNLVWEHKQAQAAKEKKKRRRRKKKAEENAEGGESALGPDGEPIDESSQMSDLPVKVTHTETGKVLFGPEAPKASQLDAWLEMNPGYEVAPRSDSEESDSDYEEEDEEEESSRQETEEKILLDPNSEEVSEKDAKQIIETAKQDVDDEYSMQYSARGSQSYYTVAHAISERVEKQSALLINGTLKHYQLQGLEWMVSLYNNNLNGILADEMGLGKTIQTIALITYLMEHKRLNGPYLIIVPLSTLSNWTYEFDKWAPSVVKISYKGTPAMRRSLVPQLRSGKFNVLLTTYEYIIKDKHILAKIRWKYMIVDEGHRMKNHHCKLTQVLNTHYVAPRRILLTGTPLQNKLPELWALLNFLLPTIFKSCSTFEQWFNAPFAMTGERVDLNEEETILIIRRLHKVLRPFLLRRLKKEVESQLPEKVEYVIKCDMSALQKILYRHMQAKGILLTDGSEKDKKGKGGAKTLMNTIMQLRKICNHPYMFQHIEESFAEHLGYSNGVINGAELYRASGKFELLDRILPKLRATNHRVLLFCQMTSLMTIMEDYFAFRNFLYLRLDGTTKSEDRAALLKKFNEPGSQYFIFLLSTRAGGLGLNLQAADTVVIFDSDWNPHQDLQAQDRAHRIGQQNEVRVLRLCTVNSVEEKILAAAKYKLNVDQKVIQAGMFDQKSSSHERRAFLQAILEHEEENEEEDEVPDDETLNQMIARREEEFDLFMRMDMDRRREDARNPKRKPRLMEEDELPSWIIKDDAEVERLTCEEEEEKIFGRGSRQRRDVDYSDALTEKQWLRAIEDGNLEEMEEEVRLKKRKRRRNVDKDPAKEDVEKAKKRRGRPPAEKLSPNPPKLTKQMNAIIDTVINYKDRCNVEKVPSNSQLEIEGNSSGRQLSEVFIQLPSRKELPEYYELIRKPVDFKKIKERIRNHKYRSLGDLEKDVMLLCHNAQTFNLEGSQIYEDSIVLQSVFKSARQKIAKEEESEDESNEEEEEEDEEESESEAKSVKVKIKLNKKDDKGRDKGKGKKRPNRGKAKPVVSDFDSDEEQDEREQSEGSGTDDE
# [5] = test system: MV4-11; assay: cells; conditions: Homo sapiens, MV4-11, 48 h
# Description: Antiproliferative activity against human MV4-11 cells assessed as inhibition of cell growth incubated for 48 hrs by MTT assay
# [6] = molecular target: SWI/SNF-related matrix-associated actin-dependent regulator of chromatin subfamily A member 4 (Homo sapiens) (UniProt P51532); assay: Binding affinity to SMARCA4 (unknown origin) using biotinylated histone peptide H4 as substrate at 1 uM incubated for 2 hrs by AlphaScreen assay relative to control
# Sequence of SWI/SNF-related matrix-associated actin-dependent regulator of chromatin subfamily A member 4 (Homo sapiens) (P51532 whole entry): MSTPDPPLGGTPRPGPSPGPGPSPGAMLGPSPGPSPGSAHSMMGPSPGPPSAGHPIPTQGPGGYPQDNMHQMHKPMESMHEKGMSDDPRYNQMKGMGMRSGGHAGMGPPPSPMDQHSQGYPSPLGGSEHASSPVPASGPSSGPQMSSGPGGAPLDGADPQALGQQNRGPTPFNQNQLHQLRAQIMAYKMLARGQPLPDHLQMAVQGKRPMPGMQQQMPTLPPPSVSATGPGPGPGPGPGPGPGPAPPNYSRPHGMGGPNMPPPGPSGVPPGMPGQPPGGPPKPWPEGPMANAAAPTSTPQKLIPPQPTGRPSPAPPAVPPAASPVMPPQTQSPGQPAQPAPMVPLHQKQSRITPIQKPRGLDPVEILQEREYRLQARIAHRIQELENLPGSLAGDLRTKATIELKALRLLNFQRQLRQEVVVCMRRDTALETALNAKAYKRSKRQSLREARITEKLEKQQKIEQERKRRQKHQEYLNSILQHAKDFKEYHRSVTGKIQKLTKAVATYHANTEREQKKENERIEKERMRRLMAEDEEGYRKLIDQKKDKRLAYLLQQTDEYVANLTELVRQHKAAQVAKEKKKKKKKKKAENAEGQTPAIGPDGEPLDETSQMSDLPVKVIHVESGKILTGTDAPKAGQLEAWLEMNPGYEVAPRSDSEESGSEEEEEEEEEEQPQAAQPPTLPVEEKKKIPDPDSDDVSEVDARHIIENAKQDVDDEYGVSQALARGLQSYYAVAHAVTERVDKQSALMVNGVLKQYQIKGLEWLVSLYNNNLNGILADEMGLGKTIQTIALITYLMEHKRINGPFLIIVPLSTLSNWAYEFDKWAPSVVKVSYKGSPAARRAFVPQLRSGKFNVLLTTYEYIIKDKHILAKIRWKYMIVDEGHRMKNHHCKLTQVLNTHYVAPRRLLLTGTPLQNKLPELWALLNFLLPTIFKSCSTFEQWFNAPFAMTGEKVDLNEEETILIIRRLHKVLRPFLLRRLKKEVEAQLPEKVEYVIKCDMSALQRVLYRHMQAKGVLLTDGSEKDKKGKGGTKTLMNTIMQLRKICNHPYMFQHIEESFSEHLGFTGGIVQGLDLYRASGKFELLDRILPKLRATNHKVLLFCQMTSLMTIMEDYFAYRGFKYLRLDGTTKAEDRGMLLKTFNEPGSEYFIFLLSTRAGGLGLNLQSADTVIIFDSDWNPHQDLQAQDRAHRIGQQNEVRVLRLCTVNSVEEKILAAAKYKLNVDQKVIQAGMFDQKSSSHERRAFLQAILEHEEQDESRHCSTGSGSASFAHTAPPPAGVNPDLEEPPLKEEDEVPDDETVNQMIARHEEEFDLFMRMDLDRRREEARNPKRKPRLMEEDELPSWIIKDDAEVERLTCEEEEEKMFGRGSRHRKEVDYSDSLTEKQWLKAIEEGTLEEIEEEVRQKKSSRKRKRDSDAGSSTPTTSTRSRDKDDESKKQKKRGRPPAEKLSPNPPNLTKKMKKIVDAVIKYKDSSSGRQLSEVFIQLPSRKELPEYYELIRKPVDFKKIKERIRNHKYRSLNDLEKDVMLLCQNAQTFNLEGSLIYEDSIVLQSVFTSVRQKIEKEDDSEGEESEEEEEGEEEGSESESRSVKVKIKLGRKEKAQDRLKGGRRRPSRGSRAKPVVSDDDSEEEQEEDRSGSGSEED
# [7] = molecular target: Bromodomain testis-specific protein (Homo sapiens) (UniProt Q58F21); assay: Binding affinity to BRDT BD1 (unknown origin) using biotinylated histone peptide H4 as substrate at 1 uM incubated for 2 hrs by AlphaScreen assay relative to control
ΔTm [1] [°C],Activity [2] [%],ΔTm [3] [°C],Activity [4] [%],IC50 [5] [µM],Activity [6] [%],Activity [7] [%],Structure (SMILES)
0,< 30,0,< 30,0.19,< 30,> 80,COc1cc2c(cc1-c1c(C)noc1C)ncc1nc(C)n([C@H](C)c3ccccc3)c12
0,< 30,0,< 30,0.8,< 30,50,COc1cc2c(cc1-c1c(C)n[nH]c1C)ncc1nc(C)n([C@H](C)c3ccccc3)c12
